Patent US20100041089A1, “IMPROVED METHOD FOR DETECTING CHEMICAL […]” (priority 2006, published 2010)

System: yeast genes (expressed mRNA)
Test: DNA chip measurement of expressed mRNA of yeast genes after culture with a toxic chemical substance
Format: cell-based, Saccharomyces cerevisiae S288C
Summary of the method: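 Expression is given as treated/untreated fluorescence ratio on a whole-genome yeast DNA chip, a ratio of two or more being significant. Log-phase S288C cultures in YPD at 25 °C received the chemical for 2 h at a dose that slows growth without killing. mRNA was reverse-transcribed with Cy3- or Cy5-dUTP.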

`Oc1cc(Cl)c(Cl)cc1Cl` [(6), 2,4,5-Trichlorophenol] was tested, and the “The level of expressed mRNA in the presence of chemical substance/The level of expressed mRNA in the absence of chemical substance” value (yeast gene YAL053W, cultured two hours with substance) was 1.1, the “The level of expressed mRNA in the presence of chemical substance/The level of expressed mRNA in the absence of chemical substance” value (yeast gene YAR028W, cultured two hours with substance) was 3.3 and the “The level of expressed mRNA in the presence of chemical substance/The level of expressed mRNA in the absence of chemical substance” value (yeast gene YBL043W) was 26.9. The “The level of expressed mRNA in the presence of chemical substance/The level of expressed mRNA in the absence of chemical substance” value (yeast gene YBL048W, cultured two hours with substance) was 2.0, the “The level of expressed mRNA in the presence of chemical substance/The level of expressed mRNA in the absence of chemical substance” value (yeast gene YBL107C, cultured two hours with substance) was 1.1 and the “The level of expressed mRNA in the presence of chemical substance/The level of expressed mRNA in the absence of chemical substance” value (yeast gene YBR026C) was 0.1. The “The level of expressed mRNA in the presence of chemical substance/The level of expressed mRNA in the absence of chemical substance” value (yeast gene YBR072W (stress protein genes)) was 32.2, the “The level of expressed mRNA in the presence of chemical substance/The level of expressed mRNA in the absence of chemical substance” value (yeast gene YBR145W) was 11.5 and the “The level of expressed mRNA in the presence of chemical substance/The level of expressed mRNA in the absence of chemical substance” value (yeast gene YBR145W (detoxification protein gene)) was 11.5. For the same molecule, the “The level of expressed mRNA in the presence of chemical substance/The level of expressed mRNA in the absence of chemical substance” value (yeast gene YBR145W, cultured for two hours with substance) was 11.5, the “The level of expressed mRNA in the presence of chemical substance/The level of expressed mRNA in the absence of chemical substance” value (yeast gene YBR169C (stress protein genes)) was 4.9 and the “The level of expressed mRNA in the presence of chemical substance/The level of expressed mRNA in the absence of chemical substance” value (yeast gene YDL072C, cultured two hours with substance) was 1.5. For the same molecule, the “The level of expressed mRNA in the presence of chemical substance/The level of expressed mRNA in the absence of chemical substance” value (yeast gene YDL204W, cultured two hours with substance) was 5.6, the “The level of expressed mRNA in the presence of chemical substance/The level of expressed mRNA in the absence of chemical substance” value (yeast gene YDL206W (transport facilitation protein genes)) was 5.7 and the “The level of expressed mRNA in the presence of chemical substance/The level of expressed mRNA in the absence of chemical substance” value (yeast gene YDL222C, cultured two hours with substance) was 1.4. The “The level of expressed mRNA in the presence of chemical substance/The level of expressed mRNA in the absence of chemical substance” value (yeast gene YDR031W, cultured two hours with substance) was 3.6, the “The level of expressed mRNA in the presence of chemical substance/The level of expressed mRNA in the absence of chemical substance” value (yeast gene YDR033W (stress protein genes)) was 6.7 and the “The level of expressed mRNA in the presence of chemical substance/The level of expressed mRNA in the absence of chemical substance” value (yeast gene YDR315C) was 9.4. For the same molecule, the “The level of expressed mRNA in the presence of chemical substance/The level of expressed mRNA in the absence of chemical substance” value (yeast gene YDR330W, cultured two hours with substance) was 2.3, the “The level of expressed mRNA in the presence of chemical substance/The level of expressed mRNA in the absence of chemical substance” value (yeast gene YDR391C, cultured two hours with substance) was 2.8 and the “The level of expressed mRNA in the presence of chemical substance/The level of expressed mRNA in the absence of chemical substance” value (yeast gene YDR406W (transport facilitation protein gene)) was 5.9. For the same molecule, the “The level of expressed mRNA in the presence of chemical substance/The level of expressed mRNA in the absence of chemical substance” value (yeast gene YDR411C, cultured two hours with substance) was 0.8, the “The level of expressed mRNA in the presence of chemical substance/The level of expressed mRNA in the absence of chemical substance” value (yeast gene YDR511W, cultured two hours with substance) was 2.0 and the “The level of expressed mRNA in the presence of chemical substance/The level of expressed mRNA in the absence of chemical substance” value (yeast gene YDR545W, cultured two hours with substance) was 1.0. For the same molecule, the “The level of expressed mRNA in the presence of chemical substance/The level of expressed mRNA in the absence of chemical substance” value (yeast gene YEL001C, cultured two hours with substance) was 1.3, the “The level of expressed mRNA in the presence of chemical substance/The level of expressed mRNA in the absence of chemical substance” value (yeast gene YER004W, cultured two hours with substance) was 1.2 and the “The level of expressed mRNA in the presence of chemical substance/The level of expressed mRNA in the absence of chemical substance” value (yeast gene YER035W, cultured two hours with substance) was 0.9. The “The level of expressed mRNA in the presence of chemical substance/The level of expressed mRNA in the absence of chemical substance” value (yeast gene YER079W, cultured two hours with substance) was 1.5, the “The level of expressed mRNA in the presence of chemical substance/The level of expressed mRNA in the absence of chemical substance” value (yeast gene YER106W, cultured two hours with substance) was 1.1 and the “The level of expressed mRNA in the presence of chemical substance/The level of expressed mRNA in the absence of chemical substance” value (yeast gene YER158C, cultured two hours with substance) was 0.7. The “The level of expressed mRNA in the presence of chemical substance/The level of expressed mRNA in the absence of chemical substance” value (yeast gene YER163C, cultured two hours with substance) was 2.0, the “The level of expressed mRNA in the presence of chemical substance/The level of expressed mRNA in the absence of chemical substance” value (yeast gene YER175C, cultured two hours with substance) was 0.8 and the “The level of expressed mRNA in the presence of chemical substance/The level of expressed mRNA in the absence of chemical substance” value (yeast gene YFL006W, cultured two hours with substance) was 1.2. The “The level of expressed mRNA in the presence of chemical substance/The level of expressed mRNA in the absence of chemical substance” value (yeast gene YFL010C, cultured two hours with substance) was 1.9, the “The level of expressed mRNA in the presence of chemical substance/The level of expressed mRNA in the absence of chemical substance” value (yeast gene YFL014W, DNA repair protein genes, cultured two hours with substance) was 9.3 and the “The level of expressed mRNA in the presence of chemical substance/The level of expressed mRNA in the absence of chemical substance” value (yeast gene YFL024C, cultured two hours with substance) was 2.0. The “The level of expressed mRNA in the presence of chemical substance/The level of expressed mRNA in the absence of chemical substance” value (yeast gene YFL032W, cultured two hours with substance) was 0.6, the “The level of expressed mRNA in the presence of chemical substance/The level of expressed mRNA in the absence of chemical substance” value (yeast gene YGL037C, cultured two hours with substance) was 1.3 and the “The level of expressed mRNA in the presence of chemical substance/The level of expressed mRNA in the absence of chemical substance” value (yeast gene YGL047W, cultured two hours with substance) was 1.5. The “The level of expressed mRNA in the presence of chemical substance/The level of expressed mRNA in the absence of chemical substance” value (yeast gene YGL053W, cultured two hours with substance) was 2.7, the “The level of expressed mRNA in the presence of chemical substance/The level of expressed mRNA in the absence of chemical substance” value (yeast gene YGL117W, cultured two hours with substance) was 0.9 and the “The level of expressed mRNA in the presence of chemical substance/The level of expressed mRNA in the absence of chemical substance” value (yeast gene YGL121C, cultured two hours with substance) was 9.8. For the same molecule, the “The level of expressed mRNA in the presence of chemical substance/The level of expressed mRNA in the absence of chemical substance” value (yeast gene YGL199C, cultured two hours with substance) was 0.7, the “The level of expressed mRNA in the presence of chemical substance/The level of expressed mRNA in the absence of chemical substance” value (yeast gene YGR043C) was 16.3 and the “The level of expressed mRNA in the presence of chemical substance/The level of expressed mRNA in the absence of chemical substance” value (yeast gene YGR043C, cultured for two hours with substance) was 16.3. For the same molecule, the “The level of expressed mRNA in the presence of chemical substance/The level of expressed mRNA in the absence of chemical substance” value (yeast gene YGR101W, cultured two hours with substance) was 0.9, the “The level of expressed mRNA in the presence of chemical substance/The level of expressed mRNA in the absence of chemical substance” value (yeast gene YGR108W) was 0.1 and the “The level of expressed mRNA in the presence of chemical substance/The level of expressed mRNA in the absence of chemical substance” value (yeast gene YGR110W, cultured two hours with substance) was 0.9. For the same molecule, the “The level of expressed mRNA in the presence of chemical substance/The level of expressed mRNA in the absence of chemical substance” value (yeast gene YGR130C, cultured two hours with substance) was 0.9, the “The level of expressed mRNA in the presence of chemical substance/The level of expressed mRNA in the absence of chemical substance” value (yeast gene YGR154C, cultured two hours with substance) was 1.4 and the “The level of expressed mRNA in the presence of chemical substance/The level of expressed mRNA in the absence of chemical substance” value (yeast gene YGR221C, cultured two hours with substance) was 3.0. The “The level of expressed mRNA in the presence of chemical substance/The level of expressed mRNA in the absence of chemical substance” value (yeast gene YHL040C (detoxification protein gene)) was 7.3, the “The level of expressed mRNA in the presence of chemical substance/The level of expressed mRNA in the absence of chemical substance” value (yeast gene YHL040C (transport facilitation protein gene)) was 7.3 and the “The level of expressed mRNA in the presence of chemical substance/The level of expressed mRNA in the absence of chemical substance” value (yeast gene YHR029C, cultured two hours with substance) was 2.7. The “The level of expressed mRNA in the presence of chemical substance/The level of expressed mRNA in the absence of chemical substance” value (yeast gene YHR138C, cultured two hours with substance) was 3.8, the “The level of expressed mRNA in the presence of chemical substance/The level of expressed mRNA in the absence of chemical substance” value (yeast gene YHR199C, cultured two hours with substance) was 1.1 and the “The level of expressed mRNA in the presence of chemical substance/The level of expressed mRNA in the absence of chemical substance” value (yeast gene YIL023C, cultured two hours with substance) was 0.9. The “The level of expressed mRNA in the presence of chemical substance/The level of expressed mRNA in the absence of chemical substance” value (yeast gene YIL024C, cultured two hours with substance) was 1.0, the “The level of expressed mRNA in the presence of chemical substance/The level of expressed mRNA in the absence of chemical substance” value (yeast gene YIL041W, cultured two hours with substance) was 1.0 and the “The level of expressed mRNA in the presence of chemical substance/The level of expressed mRNA in the absence of chemical substance” value (yeast gene YIL087C, cultured two hours with substance) was 4.1. The “The level of expressed mRNA in the presence of chemical substance/The level of expressed mRNA in the absence of chemical substance” value (yeast gene YIL117C, cultured two hours with substance) was 1.2, the “The level of expressed mRNA in the presence of chemical substance/The level of expressed mRNA in the absence of chemical substance” value (yeast gene YJL057C, cultured two hours with substance) was 1.4 and the “The level of expressed mRNA in the presence of chemical substance/The level of expressed mRNA in the absence of chemical substance” value (yeast gene YJL066C, cultured two hours with substance) was 1.4. The “The level of expressed mRNA in the presence of chemical substance/The level of expressed mRNA in the absence of chemical substance” value (yeast gene YJL082W, cultured two hours with substance) was 0.2, the “The level of expressed mRNA in the presence of chemical substance/The level of expressed mRNA in the absence of chemical substance” value (yeast gene YJL108C, cultured two hours with substance) was 0.6 and the “The level of expressed mRNA in the presence of chemical substance/The level of expressed mRNA in the absence of chemical substance” value (yeast gene YJL149W, cultured two hours with substance) was 0.7. The “The level of expressed mRNA in the presence of chemical substance/The level of expressed mRNA in the absence of chemical substance” value (yeast gene YJL151C, cultured two hours with substance) was 2.2, the “The level of expressed mRNA in the presence of chemical substance/The level of expressed mRNA in the absence of chemical substance” value (yeast gene YJL152W, cultured two hours with substance) was 1.5 and the “The level of expressed mRNA in the presence of chemical substance/The level of expressed mRNA in the absence of chemical substance” value (yeast gene YJL161W, cultured two hours with substance) was 8.0. For the same molecule, the “The level of expressed mRNA in the presence of chemical substance/The level of expressed mRNA in the absence of chemical substance” value (yeast gene YJL171C, cultured two hours with substance) was 2.7, the “The level of expressed mRNA in the presence of chemical substance/The level of expressed mRNA in the absence of chemical substance” value (yeast gene YJL186W, cultured two hours with substance) was 0.7 and the “The level of expressed mRNA in the presence of chemical substance/The level of expressed mRNA in the absence of chemical substance” value (yeast gene YJR008W, cultured two hours with substance) was 2.2.
